Assay results taken from ChEMBL document CHEMBL1132573, “Novel antitumor 2-cyanoaziridine-1-carboxamides” (J Med Chem, 1999).

How the values were obtained:
Assay type in all cases: functional, cell-based
MCF7 [1] = assay: Inhibition of cell growth in (MCF7 breast) dox cell line; conditions: Homo sapiens
L1210 [2] = assay: Inhibition of cell growth in drug sensitive L1210 leukemia cell line determined by MTT assay; conditions: Mus musculus
MCF7 [3] = assay: Inhibition of cell growth in drug sensitive MCF-7 breast cell line; conditions: Homo sapiens
RPMI-8226 [4] = assay: Inhibition of cell growth in drug resistant 8226 myeloma cell line; conditions: Homo sapiens
RPMI-8226 [5] = assay: Inhibition of cell growth in drug sensitive 8226 myeloma cell line; conditions: Homo sapiens
WiDr [6] = assay: Inhibition of cell growth in drug sensitive WiDr colon cell line; conditions: Homo sapiens
A-375 = assay: Inhibition of cell growth in (A375) melan cell line; conditions: Homo sapiens
L1210 [7] = assay: Inhibition of cell growth in (L1210 leukemia) MDR cells determined by MTT assay; conditions: Mus musculus
OVCAR-3 = assay: Inhibition of cell growth in (OVCAR-3) ovarian cell line; conditions: Homo sapiens
WiDr [8] = assay: Inhibition of cell growth in drug resistant WiDr colon cell line; conditions: Homo sapiens
MCF7 [9] = assay: Inhibition of cell growth in (MCF7 breast) mitox cell line; conditions: Homo sapiens
A549 = assay: Inhibition of cell growth in (A-549) lung cell line; conditions: Homo sapiens

Row | SMILES | IC50 (MCF7 [1]) | IC50 (L1210 [2]) | IC50 (MCF7 [3]) | IC50 (RPMI-8226 [4]) | IC50 (RPMI-8226 [5]) | IC50 (WiDr [6]) | IC50 (A-375) | IC50 (L1210 [7]) | IC50 (OVCAR-3) | IC50 (WiDr [8]) | IC50 (MCF7 [9]) | IC50 (A549)
1 | CNC(=O)N1CC1C#N (stereo not given) | 17 µM | 8.7 µM | 27 µM | 26 µM | 26 µM | 21 µM | 17 µM | 21 µM | 14 µM | 23 µM | 18 µM | 22 µM
2 | CCOC(=O)c1ccc(NC(=O)N2CC2C#N)cc1 (stereo not given) | 2.1 µM | 9.7 µM | 2.3 µM | 3 µM | 3 µM | 2.5 µM | 5.8 µM | 9.7 µM | 7.7 µM | 4.2 µM | 3.3 µM | 2.9 µM
3 | N#CC1CN1C(=O)Nc1cccnc1 (stereo not given) | 6.6 µM | 11 µM | 4.2 µM | 15 µM | 12 µM | 6 µM | 12 µM | 16 µM | 10 µM | 18 µM | 5.4 µM | 16 µM
4 | N#CC1CN1C(=O)Nc1ccc([N+](=O)[O-])cc1 (stereo not given) | 3 µM | 2.6 µM | 3 µM | 8.6 µM | 9.1 µM | 4.3 µM | 3.9 µM | 2.6 µM | 6.5 µM | 3.7 µM | 3 µM | 3.9 µM
5 | CCCCNC(=O)N1CC1C#N (stereo not given) | 6.7 µM | 12 µM | > 12 µM | 17 µM | 17 µM | 14 µM | 15 µM | 12 µM | 12 µM | 18 µM | > 12 µM | 18 µM
